This is an account of results in US11060059B2, “Methods of producing T cell populations enriched for stable regulatory T-cells” (The USA, as represented by the Secretary, Department of …, priority 2011, dated 2021).

For this assay, the system named is Foxp3+Helios+ Tregs. The assay can be described thus: Foxp3 and Helios staining (flow cytometry) of Tregs stimulated/expanded in vitro with anti-CD3/anti-CD28 and IL-2. It counts as cell-based, human. From the text: To determine if a correlation exists between Helios expression and TSDR methylation status, four different CD4^+ subsets (Foxp3^+Helios^+, Foxp3^+Helios^−, Foxp3^−Helios^+, and Foxp3^−Helios^−) were isolated and expression of various proteins analyzed. Briefly, human PBMCs were obtained from 20-80 year-old healthy male donors by Department of Transfusion Medicine at National Institutes of Health. CD4^+CD25^hiCD127^− Tregs were isolated by cell sorting on a FACSAria. Sorted Treg (0.2×10^6) cells were re-suspended in complete RPMI-1640 supplemented with 10% heat-inactivated fetal calf serum, and stimulated in plates coated with anti-CD3ϵ (10 μg/ml) and anti-CD28 (2 μg/ml) in the presence of IL-2 (150 U/ml) for 5-6 days. Stimulated cells were washed in RPMI 1640-10 media twice and expanded in complete RPMI 1640-10 with recombinant IL-2 (150 U/ml) for 5-10 days in the presence of Treg-expander magnetic beads (Cell:Bead=4:1). To evaluate the purity of sorted Tregs, cells were stained with anti-Foxp3 and anti-Helios (Biolegend) in Foxp3-staining buffer (eBioscience). All flow cytometry was performed on a FACS LSRII flow cytometer (Becton Dickinson) and analyzed with FlowJo software (TreeStar).
Initially, two potential candidates were selected for testing: TGFβ, and the toll-like receptor 9 (TLR9) agonist CpG oligodeoxynucleotide (ODN). […]
(In general: In flow cytometry, cells or beads pass a laser one at a time.)

On to `CCCCNc1nc(N)c2[nH]c(=O)n(Cc3ccc(C(=O)NCC(=O)O)cc3)c2n1` [CL264], for which the “effect on the stabilization of Foxp3+Helios+ T cells” value (TLR 7 / TLR 8 agonists at 10 μM compared with CpG ODN (FIG. 6B)) is given as “Neither the TLR 8 nor the TLR 7 agonists had any effect”.
In the case of “TGFβ: TGFβ, candidate factor added at 5 ng/ml during Treg stimulation”, where the note is “CD4+CD25+ cells, 5 days with agent alone, then 7 days without (FIG. 2B)”, the “stabilization / increase of the Foxp3+Helios+ population, single agents” value is “modest increase”.
